Legend:
[1] = biological target: T1, Sma nuc endonuclease (isoform Sm2) (Serratia marcescens, UniProt P13717); experiment: hyperchromic RNA hydrolysis assay at […] nm; Cornish-Bowden plot S/V against [I]; type: biochemical; settings: RNA substrate 0.03-0.18 mM, 50 mM Tris-HCl pH 8.5, MgSO4 1.2-7.2 mM, 37 °C; uncompetitive
T1 construct: gene nucA; Sm2 known as the full 245-residue mature form (signal peptide removed)
T1 sequence (P13717 22-266): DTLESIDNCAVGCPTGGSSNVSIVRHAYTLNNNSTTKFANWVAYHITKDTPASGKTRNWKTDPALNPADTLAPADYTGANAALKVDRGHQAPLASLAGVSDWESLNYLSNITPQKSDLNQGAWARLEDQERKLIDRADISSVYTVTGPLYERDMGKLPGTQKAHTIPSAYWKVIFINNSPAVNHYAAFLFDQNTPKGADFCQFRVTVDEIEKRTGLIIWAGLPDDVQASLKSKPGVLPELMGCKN

[2] = biological target: T1, Sma nuc endonuclease (isoform Sm2); experiment: hyperchromic RNA hydrolysis assay at […] nm; secondary double reciprocal plot of Lineweaver-Burk segments; type: biochemical

Compound | Ki [1] [µM] | Ki [2] [µM]
Nc1nc2c(ncn2[C@@H]2O[C@H](COP(=O)(O)O)[C@@H](O)[C@H]2O)c(=O)[nH]1 [GMP] | 229 | –
Nc1ccn([C@@H]2O[C@H](COP(=O)(O)O)[C@@H](O)[C@H]2O)c(=O)n1 [CMP] | 86.2 | –
Nc1ncnc2c1ncn2[C@@H]1O[C@H](COP(=O)(O)O)[C@@H](O)[C@H]1O [AMP] | – | 76.5
O=c1ccn([C@@H]2O[C@H](COP(=O)(O)O)[C@@H](O)[C@H]2O)c(=O)[nH]1 [UMP] | 310.7 | –
Nc1ncnc2c1ncn2[C@H]1C[C@H](O)[C@@H](COP(=O)(O)O)O1 [dAMP] | – | 60

Reference: paper PMC3361238, “The Effects of Addition of Mononucleotides on Sma nuc Endonuclease Activity” (The Scientific World Journal, 2012)
